Results as given in publication PMC5064907, “Tissue expression and antibacterial activity of host defense peptides in chicken” (BMC Veterinary Research, 2016).
Like-named read-outs stand apart in the source and are kept apart here. Residues, ends and D or L forms follow the SMILES beside them. No end group written: not given here.

Experiments:
[1] = system: Escherichia coli ATCC 25922; assay type: cell-based; settings: for Antibacterial activity over the tested concentrations: 0.5, 1, 2.5 and 5 μM peptide, Fig. 2b; for Antibacterial activity over the tested concentrations / Killing activity among tested HDPs at less than 5 μM: 2 h; for Antibacterial activity over the tested concentrations / Antibacterial (lytic) activity against E.coli at 5 μM: 37 °C; for Bacteria killed at 0.5 μM: ATCC 25922, 2 h; for Antibacterial (lytic) activity against E.coli at 5 μM: 5 μM peptide, 6 × 10^6 CFU/ml E. coli ATCC 25922, 2 h, luminescence, Fig. 2a; for Killing activity among tested HDPs at less than 5 μM: less than 5 μM peptide; for Killing activity among tested HDPs at less than 5 μM / Relative antibacterial effect among all tested chicken HDPs: E. coli; for Relative antibacterial effect among all tested chicken HDPs: under test conditions (0.5-5 μM, 2 h); for Efficiency in reducing E. coli cell viability and damaging cell membranes (comparison among the CATHs): discussion summary of the viability and membrane damage data
Description: Gram-negative bacteria, Escherichia coli ATCC 25922, were purchased from Korean Collection for Type Culture and tested against each peptide. Cell viability analysis was carried out as previously reported. Briefly, 6 × 10^6 colony–forming units (CFU)/ml bacteria suspensions (90 μl) were placed into 96 well plates, followed by the addition of 10 μl of serial diluted peptide (final 0, 0.5, 1, 2.5, 5 μM) in triplicate. After 2 h incubation at 37 °C, equal volume of BacTiter-Glo™ Reagent (Promega) was added, and incubated for 5 min after which luminescence was measured with GloMax-Multi Detection System (Promega).
E. coli (6 × 10^6) were incubated with indicated amounts of peptide for 2 h and cell viability was compared to untreated cells. […] Each bar represents the mean ± S.D. value of at least three independent experiments. Non-treated cell considered as 100 % cell viability and peptides treated cell viability was compared and calculated in percentile. *** indicate p ≤ 0.001, ** indicate p ≤ 0.01 and * indicate p ≤ 0.05

[2] = system: E.coli; settings: previous report; cited from earlier work
Source text: Even though many tested chicken HDPs show varying efficiencies against pathogens, the majority kill bacteria at low concentration. […] These four peptides have very low net charge from 0.1 to 1.8. AvBD4 has 24 % hydrophobicity with 5.8 net charge and can kill bacteria very well compared to AvBD5, -8 and -13 that have the same hydrophobicity but lower cationicity of 0.1 to […].

[3] = system: E. coli; assay: Detection of damaged E. coli membranes, LIVE/DEAD BacLight staining, confocal laser scanning microscopy; assay type: cell-based, Escherichia coli; settings: 5 μM peptide, 6.5 × 10^6 CFU E. coli, 10 mM phosphate buffer pH 7.0, 37 °C, 2 h
Description: Fig. 3 Escherichia coli viability and membrane damage following treatment with cathelicidins. Membrane damage in E. coli treated with each synthetic cathelicidin peptide (5 μM) was detected with a LIVE/DEAD BacLight Bacterial Viability Kit. Green fluorescence indicates live bacteria with intact membranes; red fluorescence indicates dead bacteria with damaged membranes.

## CC[C@H](C)[C@H](NC(=O)[C@H](C)NC(=O)[C@H](CC(=O)O)NC(=O)[C@H](CCC(=O)O)NC(=O)[C@H](CC(=O)O)NC(=O)[C@@H]1CCCN1)C(=O)N[C@@H](CC(N)=O)C(=O)N[C@@H](CC(N)=O)C(=O)N[C@@H](C)C(=O)N[C@@H](CC(C)C)C(=O)N[C@@H](CC(N)=O)C(=O)N[C@@H](CCCCN)C(=O)N[C@H](C(=O)N[C@@H](CS)C(=O)N[C@@H](CO)C(=O)N[C@H](C(=O)NCC(=O)N[C@@H](CCCNC(=N)N)C(=O)N[C@@H](CCCNC(=N)N)C(=O)N[C@@H](CCC(N)=O)C(=O)N[C@@H](CCCNC(=N)N)C(=O)N[C@@H](CO)C(=O)N[C@H](C(=O)N[C@@H](CS)C(=O)N[C@@H](CCCCN)C(=O)N[C@@H](CCC(N)=O)C(=O)N[C@@H](CC(C)C)C(=O)N[C@@H](CC(C)C)C(=O)N[C@@H](CCCCN)C(=O)N[C@@H](CCCCN)C(=O)O)[C@@H](C)CC)[C@@H](C)O)C(C)C [cNK3] (H-PDEDAINNALNKVCSTGRRQRSICKQLLKK-OH; N-terminus and C-terminus assumed)
[1]
  Antibacterial activity over the tested concentrations: very strong antibacterial activity at all concentration
  Bacteria killed at 0.5 μM: 50%

## PDTVACRTQGNFCRAGACPPTFTISGQCHGGLLNCCAKIPAQ [AvBD10, synthetic linear peptide corresponding to chicken avian β-defensin 10]
[1]
  Antibacterial (lytic) activity against E.coli at 5 μM: very weak lytic activity
  Killing activity among tested HDPs at less than 5 μM: minimal killing activity

## CC[C@H](C)[C@H](NC(=O)CNC(=O)[C@H](CC(N)=O)NC(=O)[C@H](CC(N)=O)NC(=O)[C@H](CS)NC(=O)[C@@H](NC(=O)CNC(=O)[C@@H](NC(=O)[C@H](Cc1c[nH]c2ccccc12)NC(=O)[C@H](Cc1ccc(O)cc1)NC(=O)[C@H](Cc1ccc(O)cc1)NC(=O)[C@@H]1CCCN1C(=O)[C@H](CCCNC(=N)N)NC(=O)[C@H](CCCNC(=N)N)NC(=O)[C@H](CS)NC(=O)[C@@H](NC(=O)CNC(=O)[C@@H]1CCCN1C(=O)[C@H](Cc1ccccc1)NC(=O)[C@H](CS)NC(=O)[C@H](CC(C)C)NC(=O)CNC(=O)[C@H](CC(N)=O)NC(=O)[C@H](CCCNC(=N)N)NC(=O)[C@H](CC(C)C)NC(=O)[C@H](CCCNC(=N)N)NC(=O)[C@H](CS)NC(=O)[C@@H](NC(=O)[C@H](CC(=O)O)NC(=O)[C@@H](NC(=O)[C@@H]1CCCN1C(=O)[C@@H](N)CCCNC(=N)N)[C@@H](C)CC)[C@@H](C)O)[C@@H](C)CC)[C@@H](C)CC)[C@@H](C)O)C(=O)NCC(=O)N[C@@H](CO)C(=O)N[C@@H](CS)C(=O)N[C@@H](CS)C(=O)N[C@@H](C)C(=O)N[C@@H](CCCNC(=N)N)C(=O)O [AvBD7] (H-RPIDTCRLRNGLCFPGICRRPYYWIGTCNNGIGSCCAR-OH; N-terminus and C-terminus assumed)
[1]
  Antibacterial activity over the tested concentrations: very strong antibacterial activity at all concentration

## NNEAQCEQAGGICSKDHCFHLHTRAFGHCQRGVPCCRTVYD [AvBD8, synthetic linear peptide corresponding to chicken avian β-defensin 8]
[1]
  Antibacterial (lytic) activity against E.coli at 5 μM: very weak lytic activity
  Killing activity among tested HDPs at less than 5 μM: minimal killing activity
[2]
  Lethal dose (LD)50 against E.coli: 27 µM

## PDSCNHDRGLCRVGNCNPGEYLAKYCFEPVILLCCKPLSPTPTKT [AvBD12, synthetic linear peptide corresponding to chicken avian β-defensin 12]
[1]
  Antibacterial (lytic) activity against E.coli at 5 μM: very weak lytic activity
  Killing activity among tested HDPs at less than 5 μM: minimal killing activity

## CSCC[C@H](NC(=O)[C@H](Cc1c[nH]cn1)NC(=O)[C@H](Cc1ccc(O)cc1)NC(=O)[C@@H](N)CCCNC(=N)N)C(=O)N[C@@H](CCC(N)=O)C(=O)N[C@@H](CS)C(=O)NCC(=O)N[C@@H](Cc1ccc(O)cc1)C(=O)N[C@@H](CCCNC(=N)N)C(=O)NCC(=O)N[C@H](C(=O)N[C@@H](Cc1ccccc1)C(=O)N[C@@H](CS)C(=O)N[C@H](C(=O)N1CCC[C@H]1C(=O)NCC(=O)N[C@@H](CCCCN)C(=O)N[C@@H](CS)C(=O)N1CCC[C@H]1C(=O)N[C@@H](Cc1ccc(O)cc1)C(=O)NCC(=O)N[C@@H](CC(N)=O)C(=O)N[C@@H](C)C(=O)N[C@@H](Cc1ccc(O)cc1)C(=O)N[C@@H](CC(C)C)C(=O)NCC(=O)N[C@@H](CC(C)C)C(=O)N[C@@H](CS)C(=O)N[C@@H](CCCNC(=N)N)C(=O)N1CCC[C@H]1C(=O)N[C@@H](CCCCN)C(=O)N[C@@H](Cc1ccc(O)cc1)C(=O)N[C@@H](CO)C(=O)N[C@@H](CS)C(=O)N[C@@H](CS)C(=O)N[C@@H](CCCNC(=N)N)C(=O)N[C@@H](Cc1c[nH]c2ccccc12)C(=O)O)[C@@H](C)O)[C@@H](C)O [AvBD4] (H-RYHMQCGYRGTFCTPGKCPYGNAYLGLCRPKYSCCRW-OH; N-terminus and C-terminus assumed)
[1]; listed as BD4
  Antibacterial activity over the tested concentrations: strongest activity among the three
[1]
  Relative antibacterial effect among all tested chicken HDPs: strongest antibacterial effect among all tested chicken HDPs
[1]; listed as β-defensin4
  Relative antibacterial effect among all tested chicken HDPs: strongest antibacterial activity among all tested chicken HDPs

## PVRVKRFWPLVPVAINTVAAGINLYKAIRRK [CATH3]
[1]
  Antibacterial activity over the tested concentrations: very strong antibacterial activity at all concentration
  Bacteria killed at 0.5 μM: 50%
  Efficiency in reducing E. coli cell viability and damaging cell membranes (comparison among the CATHs): highest efficiency
[3]
  E. coli membrane damage (red fluorescence, LIVE/DEAD BacLight): greater with CATH2 or CATH3 than with CATH1 or CATHB1

## GLPQDCERRGGFCSHKSCPPGIGRIGLCSKEDFCCRS [AvBD5, synthetic linear peptide corresponding to chicken avian β-defensin 5]
[1]
  Antibacterial (lytic) activity against E.coli at 5 μM: very weak lytic activity
  Killing activity among tested HDPs at less than 5 μM: minimal killing activity

## PVLVQRGRFGRFLRKIRRFRPKVTITIQGSARFG [CATH2]
[1]
  Antibacterial activity over the tested concentrations: very strong antibacterial activity at all concentration
  Bacteria killed at 0.5 μM: 50%
  Efficiency in reducing E. coli cell viability and damaging cell membranes (comparison among the CATHs): highest efficiency
[3]
  E. coli membrane damage (red fluorescence, LIVE/DEAD BacLight): greater with CATH2 or CATH3 than with CATH1 or CATHB1

## TATQCRIRGGFCRVGSCRFPHIAIGKCATFISCCGR [AvBD3, synthetic linear peptide corresponding to chicken avian β-defensin 3]
[1]
  Antibacterial activity over the tested concentrations: kill effectively over all tested concentrations

## PIRNWWIRIWEWLNGIRKRLRQRSPFYVRGHLNVTSTPQP [CATB1]
[1]
  Efficiency in reducing E. coli cell viability and damaging cell membranes (comparison among the CATHs): weak antibacterial activity compared to others
[3]
  E. coli membrane damage (red fluorescence, LIVE/DEAD BacLight): greater with CATH2 or CATH3 than with CATH1 or CATHB1
